Source: ChEMBL document CHEMBL5465560, “Selectivity Literature for EUbOPEN Chemogenomic Library” (2024)

Columns and labels:
[1] = target: Dual specificity protein kinase CLK2 (Homo sapiens, UniProt P49760); conditions: at 10 µM
[2] = target: Cyclin-dependent kinase 18 (Homo sapiens) (UniProt Q07002); test: Selectivity interaction (KinomeScan (DiscoverX)) EUB0000655a CDK18; conditions: at 10 µM
[3] = target: Serine/threonine-protein kinase PAK 3 (Homo sapiens) (UniProt O75914); test: Selectivity interaction (KinomeScan (DiscoverX)) EUB0000655a PAK3; conditions: at 10 µM
Serine/threonine-protein kinase PAK 3 (Homo sapiens), sequence (O75914 whole entry, looked up, canonical isoform): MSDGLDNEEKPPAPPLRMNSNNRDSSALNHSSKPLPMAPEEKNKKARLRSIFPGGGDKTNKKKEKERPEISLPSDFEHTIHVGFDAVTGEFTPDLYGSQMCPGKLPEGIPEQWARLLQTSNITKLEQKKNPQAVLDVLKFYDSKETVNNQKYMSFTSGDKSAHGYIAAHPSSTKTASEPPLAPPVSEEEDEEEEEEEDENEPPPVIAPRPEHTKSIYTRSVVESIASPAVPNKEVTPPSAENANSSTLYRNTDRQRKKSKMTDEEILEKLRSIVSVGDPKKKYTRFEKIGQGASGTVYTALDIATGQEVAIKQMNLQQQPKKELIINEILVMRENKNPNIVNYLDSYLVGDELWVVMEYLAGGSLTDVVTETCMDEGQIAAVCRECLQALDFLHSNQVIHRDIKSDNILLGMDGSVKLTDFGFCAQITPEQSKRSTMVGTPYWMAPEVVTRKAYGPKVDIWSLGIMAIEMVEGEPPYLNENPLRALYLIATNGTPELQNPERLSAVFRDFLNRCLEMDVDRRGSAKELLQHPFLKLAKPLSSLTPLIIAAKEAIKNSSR

[4] = target: Phosphatidylinositol 4,5-bisphosphate 3-kinase catalytic subunit gamma isoform (Homo sapiens) (UniProt P48736); test: Selectivity interaction (Panel of kinases, GPCRs, ion channels and transporters (enzymatic assay)) EUB0000266bCl PIK3CG
Phosphatidylinositol 4,5-bisphosphate 3-kinase catalytic subunit gamma isoform (Homo sapiens), sequence (P48736 whole entry, looked up, canonical isoform): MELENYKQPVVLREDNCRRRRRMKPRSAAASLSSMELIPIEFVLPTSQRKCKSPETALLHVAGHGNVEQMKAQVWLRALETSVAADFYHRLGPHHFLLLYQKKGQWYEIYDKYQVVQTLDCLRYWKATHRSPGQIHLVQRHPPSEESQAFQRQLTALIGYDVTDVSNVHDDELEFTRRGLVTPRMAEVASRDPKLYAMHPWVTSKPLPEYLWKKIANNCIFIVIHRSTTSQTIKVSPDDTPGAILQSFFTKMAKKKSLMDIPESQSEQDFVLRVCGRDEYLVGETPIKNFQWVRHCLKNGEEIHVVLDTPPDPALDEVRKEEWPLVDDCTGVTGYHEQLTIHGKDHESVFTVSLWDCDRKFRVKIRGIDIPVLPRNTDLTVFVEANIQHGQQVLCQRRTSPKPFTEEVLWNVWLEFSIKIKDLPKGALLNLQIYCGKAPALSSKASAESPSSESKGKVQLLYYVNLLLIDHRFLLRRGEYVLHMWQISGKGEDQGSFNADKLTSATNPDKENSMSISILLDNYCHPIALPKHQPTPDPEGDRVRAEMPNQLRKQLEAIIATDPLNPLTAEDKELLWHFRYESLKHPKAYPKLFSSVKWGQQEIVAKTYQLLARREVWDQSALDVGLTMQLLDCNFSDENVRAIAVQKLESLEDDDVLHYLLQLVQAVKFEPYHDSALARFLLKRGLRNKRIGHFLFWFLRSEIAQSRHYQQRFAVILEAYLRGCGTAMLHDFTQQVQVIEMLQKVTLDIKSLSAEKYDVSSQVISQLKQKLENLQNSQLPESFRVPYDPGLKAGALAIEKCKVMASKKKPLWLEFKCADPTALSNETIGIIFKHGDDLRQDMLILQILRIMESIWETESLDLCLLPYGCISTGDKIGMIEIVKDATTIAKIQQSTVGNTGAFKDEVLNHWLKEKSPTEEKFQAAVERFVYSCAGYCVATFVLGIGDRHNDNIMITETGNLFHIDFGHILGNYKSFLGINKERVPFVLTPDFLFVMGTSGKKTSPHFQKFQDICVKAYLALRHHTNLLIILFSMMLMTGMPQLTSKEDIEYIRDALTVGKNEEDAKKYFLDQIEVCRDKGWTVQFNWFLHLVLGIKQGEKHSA

[5] = target: Tyrosine-protein kinase JAK2 (Homo sapiens, UniProt O60674); test: Selectivity interaction (KinomeScan (DiscoverX)) EUB0001079a JAK2; conditions: at 1 µM
[6] = target: 5-hydroxytryptamine receptor 2B (Homo sapiens, UniProt P41595); test: Selectivity interaction (GPCR panel (PDSP screen)) EUB0001079a HTR2B; conditions: at 10 µM
[7] = target: Serine/threonine-protein kinase pim-1 (Homo sapiens, UniProt P11309); test: Selectivity interaction (KinomeScan (DiscoverX)) EUB0000666a PIM1; conditions: at 10 µM
[8] = target: Serine/threonine-protein kinase 38-like (Homo sapiens) (UniProt Q9Y2H1); test: Selectivity interaction (LanthaScreen Eu Kinase Binding Assay) EUB0001632a STK38L; conditions: at 10 µM
[9] = target: 5'-AMP-activated protein kinase catalytic subunit alpha-1 (Homo sapiens, UniProt Q13131); test: Selectivity interaction (Kinase panel (Enzyme activity assay)) EUB0000612a PRKAA1
5'-AMP-activated protein kinase catalytic subunit alpha-1, sequence (Q13131 whole entry): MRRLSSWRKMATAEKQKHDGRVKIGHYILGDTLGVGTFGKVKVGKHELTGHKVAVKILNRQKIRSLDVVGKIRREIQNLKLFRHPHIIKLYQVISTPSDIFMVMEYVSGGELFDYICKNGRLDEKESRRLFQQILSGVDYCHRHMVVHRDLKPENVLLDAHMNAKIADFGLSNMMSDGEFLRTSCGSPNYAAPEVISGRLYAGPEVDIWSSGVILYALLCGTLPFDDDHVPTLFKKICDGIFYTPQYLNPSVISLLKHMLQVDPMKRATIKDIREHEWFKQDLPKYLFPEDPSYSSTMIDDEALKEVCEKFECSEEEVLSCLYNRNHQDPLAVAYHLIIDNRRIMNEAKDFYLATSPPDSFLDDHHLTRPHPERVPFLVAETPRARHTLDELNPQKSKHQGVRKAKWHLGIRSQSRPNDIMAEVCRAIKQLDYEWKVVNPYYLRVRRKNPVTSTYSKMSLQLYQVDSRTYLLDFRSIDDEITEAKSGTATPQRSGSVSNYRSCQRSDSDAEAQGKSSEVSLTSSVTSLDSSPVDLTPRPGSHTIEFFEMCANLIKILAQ

[10] = target: Serine/threonine-protein kinase tousled-like 2 (Homo sapiens) (UniProt Q86UE8); test: Selectivity interaction (ActivX KiNativ screen (kinase selectivity in THP-1 cell lysates)) EUB0000639a TLK2; format: subcellular; conditions: lysate, at 5 µM
[11] = target: Death-associated protein kinase 3 (Homo sapiens) (UniProt O43293); test: Selectivity interaction (Kinase panel (Invitrogen)) EUB0000639a DAPK3; conditions: at 200 nM
Death-associated protein kinase 3 (Homo sapiens), sequence (O43293 whole entry, looked up): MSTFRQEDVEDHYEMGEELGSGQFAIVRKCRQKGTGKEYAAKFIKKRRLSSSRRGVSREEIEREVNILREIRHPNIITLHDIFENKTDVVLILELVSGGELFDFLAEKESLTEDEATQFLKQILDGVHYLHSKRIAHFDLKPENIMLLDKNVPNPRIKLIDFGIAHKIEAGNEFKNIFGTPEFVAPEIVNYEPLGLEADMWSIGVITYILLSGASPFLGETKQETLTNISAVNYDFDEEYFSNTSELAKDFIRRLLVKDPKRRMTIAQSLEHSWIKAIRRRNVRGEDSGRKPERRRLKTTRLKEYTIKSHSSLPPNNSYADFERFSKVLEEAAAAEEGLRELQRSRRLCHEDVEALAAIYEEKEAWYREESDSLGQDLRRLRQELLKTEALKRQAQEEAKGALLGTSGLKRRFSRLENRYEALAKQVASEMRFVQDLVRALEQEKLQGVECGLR

[12] = target: Serine/threonine-protein kinase MARK2 (Homo sapiens) (UniProt Q7KZI7); test: Selectivity interaction (ActivX KiNativ screen (kinase selectivity in THP-1 cell lysates)) EUB0000639a MARK2; format: subcellular; conditions: lysate
Serine/threonine-protein kinase MARK2 (Homo sapiens), sequence (Q7KZI7 whole entry): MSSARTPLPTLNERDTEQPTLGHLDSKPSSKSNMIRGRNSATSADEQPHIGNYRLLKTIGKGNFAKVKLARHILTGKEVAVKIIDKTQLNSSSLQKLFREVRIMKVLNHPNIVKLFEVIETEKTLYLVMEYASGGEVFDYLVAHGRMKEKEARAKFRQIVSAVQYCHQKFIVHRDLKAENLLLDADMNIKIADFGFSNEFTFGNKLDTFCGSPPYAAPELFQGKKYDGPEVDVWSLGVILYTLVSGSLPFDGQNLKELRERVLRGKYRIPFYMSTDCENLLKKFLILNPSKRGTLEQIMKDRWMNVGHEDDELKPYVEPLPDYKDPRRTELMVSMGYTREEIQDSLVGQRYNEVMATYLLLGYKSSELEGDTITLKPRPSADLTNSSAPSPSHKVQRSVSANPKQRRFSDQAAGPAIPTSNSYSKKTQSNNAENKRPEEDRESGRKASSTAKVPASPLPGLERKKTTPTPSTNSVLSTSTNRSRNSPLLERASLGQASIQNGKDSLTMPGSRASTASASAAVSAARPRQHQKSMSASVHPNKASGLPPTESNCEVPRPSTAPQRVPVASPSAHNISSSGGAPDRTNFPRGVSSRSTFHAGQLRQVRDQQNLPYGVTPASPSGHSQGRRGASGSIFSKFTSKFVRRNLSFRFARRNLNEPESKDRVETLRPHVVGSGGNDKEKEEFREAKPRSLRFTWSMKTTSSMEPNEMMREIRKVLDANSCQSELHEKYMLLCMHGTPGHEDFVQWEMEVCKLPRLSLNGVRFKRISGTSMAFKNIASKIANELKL

[13] = target: Cyclin-dependent kinase 5 (Homo sapiens, UniProt Q00535); test: Selectivity interaction (KinomeScan (DiscoverX)) EUB0000607a CDK5; conditions: at 10 µM
[14] = target: Ribosomal protein S6 kinase alpha-6 (Homo sapiens, UniProt Q9UK32); test: Selectivity interaction (KinomeScan (DiscoverX)) EUB0000607a RPS6KA6; conditions: at 10 µM
Ribosomal protein S6 kinase alpha-6, sequence (Q9UK32 whole entry): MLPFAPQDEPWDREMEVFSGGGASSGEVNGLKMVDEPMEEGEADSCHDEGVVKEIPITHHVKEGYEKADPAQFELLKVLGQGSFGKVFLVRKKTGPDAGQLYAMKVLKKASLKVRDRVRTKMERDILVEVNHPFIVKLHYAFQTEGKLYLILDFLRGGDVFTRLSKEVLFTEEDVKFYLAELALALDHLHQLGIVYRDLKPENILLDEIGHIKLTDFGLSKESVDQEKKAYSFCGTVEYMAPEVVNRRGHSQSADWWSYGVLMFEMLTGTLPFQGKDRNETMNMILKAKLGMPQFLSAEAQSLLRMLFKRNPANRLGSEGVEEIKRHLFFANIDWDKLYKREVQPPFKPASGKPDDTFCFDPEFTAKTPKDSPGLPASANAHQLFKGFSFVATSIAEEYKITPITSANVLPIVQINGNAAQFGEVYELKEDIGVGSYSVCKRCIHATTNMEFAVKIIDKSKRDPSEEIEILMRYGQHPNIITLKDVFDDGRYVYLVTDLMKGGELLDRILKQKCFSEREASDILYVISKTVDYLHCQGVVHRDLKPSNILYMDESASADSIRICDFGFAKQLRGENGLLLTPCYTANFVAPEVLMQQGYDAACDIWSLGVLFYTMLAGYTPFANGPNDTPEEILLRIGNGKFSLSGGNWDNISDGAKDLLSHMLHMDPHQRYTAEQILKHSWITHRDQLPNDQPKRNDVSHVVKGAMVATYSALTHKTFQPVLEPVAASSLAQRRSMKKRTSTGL

[15] = test system: eIF-2-alpha kinase GCN2 (Homo sapiens), Q9P2K8 [S808G]; test: Selectivity interaction (KinomeScan (DiscoverX)) EUB0001049a EIF2AK4; conditions: at 1 µM
[16] = target: T1, Cyclin-G-associated kinase (Homo sapiens) (UniProt O14976); test: Selectivity interaction (KinomeScan (DiscoverX)) EUB0000595a GAK; conditions: at 10 µM
T1 sequence (whole entry): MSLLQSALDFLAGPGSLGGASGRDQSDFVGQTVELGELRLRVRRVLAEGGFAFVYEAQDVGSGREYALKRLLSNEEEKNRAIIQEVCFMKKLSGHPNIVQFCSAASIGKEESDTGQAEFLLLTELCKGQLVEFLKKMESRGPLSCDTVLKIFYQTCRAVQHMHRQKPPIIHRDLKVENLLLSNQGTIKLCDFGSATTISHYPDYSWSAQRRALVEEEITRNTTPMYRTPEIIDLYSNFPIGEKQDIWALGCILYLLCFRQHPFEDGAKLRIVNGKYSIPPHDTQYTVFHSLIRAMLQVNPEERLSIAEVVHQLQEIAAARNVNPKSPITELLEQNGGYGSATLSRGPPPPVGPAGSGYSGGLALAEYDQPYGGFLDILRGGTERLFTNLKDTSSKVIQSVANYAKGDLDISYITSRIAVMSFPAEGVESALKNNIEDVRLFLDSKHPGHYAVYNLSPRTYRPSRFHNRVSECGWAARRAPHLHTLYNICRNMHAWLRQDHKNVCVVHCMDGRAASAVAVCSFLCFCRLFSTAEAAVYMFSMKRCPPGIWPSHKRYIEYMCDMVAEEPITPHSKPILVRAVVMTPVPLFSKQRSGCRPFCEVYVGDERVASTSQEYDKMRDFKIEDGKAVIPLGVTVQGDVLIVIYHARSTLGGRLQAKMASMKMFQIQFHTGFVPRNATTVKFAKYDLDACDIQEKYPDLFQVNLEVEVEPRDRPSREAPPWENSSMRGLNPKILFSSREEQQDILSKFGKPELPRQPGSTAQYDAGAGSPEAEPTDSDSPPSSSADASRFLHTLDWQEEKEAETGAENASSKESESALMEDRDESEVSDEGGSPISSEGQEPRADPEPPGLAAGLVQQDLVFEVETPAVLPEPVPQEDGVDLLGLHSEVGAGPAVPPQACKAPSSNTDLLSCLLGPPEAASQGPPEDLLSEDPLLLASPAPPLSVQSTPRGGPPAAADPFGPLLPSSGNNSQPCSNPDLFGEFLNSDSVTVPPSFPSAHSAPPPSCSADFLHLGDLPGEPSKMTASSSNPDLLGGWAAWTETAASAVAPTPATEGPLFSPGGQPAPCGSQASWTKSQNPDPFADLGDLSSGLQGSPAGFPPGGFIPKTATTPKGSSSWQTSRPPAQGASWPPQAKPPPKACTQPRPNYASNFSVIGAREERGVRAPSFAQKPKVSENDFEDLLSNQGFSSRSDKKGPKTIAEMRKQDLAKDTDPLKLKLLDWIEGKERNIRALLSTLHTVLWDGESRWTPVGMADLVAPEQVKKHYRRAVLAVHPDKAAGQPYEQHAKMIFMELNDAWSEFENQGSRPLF

SRSF protein kinase 1 = SRSF protein kinase 1 (Homo sapiens, UniProt Q96SB4); test: Selectivity interaction (Kinase panel (literature)) EUB0001199aCl SRPK1; conditions: at 1 µM
SRSF protein kinase 1, sequence (Q96SB4 whole entry): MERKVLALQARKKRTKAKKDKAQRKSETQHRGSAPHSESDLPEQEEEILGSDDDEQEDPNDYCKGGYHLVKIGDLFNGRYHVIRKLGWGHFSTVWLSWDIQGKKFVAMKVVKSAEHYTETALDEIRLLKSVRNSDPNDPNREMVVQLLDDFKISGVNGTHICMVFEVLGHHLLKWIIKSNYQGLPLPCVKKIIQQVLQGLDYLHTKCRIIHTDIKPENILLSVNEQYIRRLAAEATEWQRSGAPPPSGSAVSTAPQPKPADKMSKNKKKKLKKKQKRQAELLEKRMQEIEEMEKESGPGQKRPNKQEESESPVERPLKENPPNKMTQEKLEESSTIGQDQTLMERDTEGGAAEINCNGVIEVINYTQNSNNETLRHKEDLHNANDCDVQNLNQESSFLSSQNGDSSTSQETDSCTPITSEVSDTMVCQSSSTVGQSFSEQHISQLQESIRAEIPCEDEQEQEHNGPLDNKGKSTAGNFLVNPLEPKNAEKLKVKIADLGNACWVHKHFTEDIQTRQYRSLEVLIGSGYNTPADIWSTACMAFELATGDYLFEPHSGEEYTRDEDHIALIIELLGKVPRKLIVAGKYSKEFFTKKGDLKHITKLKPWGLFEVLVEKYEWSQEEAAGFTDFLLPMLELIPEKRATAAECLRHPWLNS

[17] = target: Ribosomal protein S6 kinase alpha-3 (Homo sapiens, UniProt P51812); test: Selectivity interaction (ActivX KiNativ screen (ex vivo kinase selectivity in human PBMCs)) EUB0001619a RPS6KA3; format: cell-based; conditions: PBMC, at 1 µM

CCN(CC)CCCCNc1ncc2cc(-c3cc(OC)cc(OC)c3)c(NC(=O)NC(C)(C)C)nc2n1
% of control [1]: 100%

CN(C)CCOc1ccc(-c2nc(-c3ccncc3)c(-c3ccc4c(c3)CC/C4=N\O)[nH]2)cc1
% of control [2]: 100% | % of control [3]: 72%

CCn1c(-c2nc3cc(C(=O)N4CCCC(N)C4)ccc3n2C)cc2ccccc21 (configuration not stated)
pXC50 [4]: < 4.5 M

Nc1cnc(N2CCc3cc(S(=O)(=O)Nc4c(F)cc(Cl)cc4F)cc(N4CCCC4=O)c32)nc1 [TP-020n]
% of control [5]: 100% | % of inhibition [6]: 12.9%

O=C(NOC[C@H](O)CO)c1ccc(F)c(F)c1Nc1ccc(I)cc1F
% of control [7]: 100%

Cn1cc(-n2cnc3c(NCc4nc5cc(Cl)c(Cl)cc5[nH]4)nc(N4CCOCC4)nc32)cn1
% of inhibition [8]: -54.8%

CCc1cccc(CC)c1NC(=O)c1nn(C)c2c1CCc1cnc(Nc3ccc(C(=O)NC4CCN(C)CC4)cc3OC(F)(F)F)nc1-2
IC50 [9]: > 10 µM

CC[C@@H]1[C@H](F)C(=O)N[C@@H]1COc1nccc2cc(C(N)=O)c(OC)cc12 [ZIMLOVISERTIB]
% of inhibition [10]: 80.5% | % of inhibition [11]: 20.3% | % of inhibition ([12]; at 0.01 µM): -8% | % of inhibition ([12]; at 0.04 µM): 6.9% | % of inhibition ([12]; at 0.2 µM): 9.9% | % of inhibition ([12]; at 1 µM): 30% | % of inhibition ([12]; at 5 µM): 56.3%

CNC(=O)Nc1ccc(-c2nc(N3CC4CCC(C3)O4)c3cnn(C4CCC5(CC4)OCCO5)c3n2)cc1
% of control [13]: 88% | % of control [14]: 84%

COc1cc(Nc2nc(C)cc(-c3cnn4nc(OC)ccc34)n2)cc(C(F)(F)F)c1
% of control [15]: 100%

COCC(=O)NC/C=C/c1ccc2ncnc(Nc3ccc(Oc4ccc(C)nc4)c(C)c3)c2c1 [CP-724714]
% of control [16]: 84%

CN1Cc2nccc(-c3cn(C)nc3-c3ccc(F)cc3)c2C1=O
% of inhibition (SRSF protein kinase 1): 8%

N#Cc1cccc(-c2c[nH]c3ncnc(N4CCOCC4)c23)c1
% of inhibition [17]: 10%
